Measured values published in US4797400A, “Piperazine compounds and anti-ulcer composition containing the same” (Kanebo, Ltd., priority 1986, dated 1989).
Where a name gives a salt, the structure may show the parent alone.

Tests used:
[1] = system: ethanol-induced gastric ulcer; assay: Inhibitory effect on ethanol-induced gastric ulcer; assay type: in vivo, male Sprague-Dawley (SD) rats; conditions: Rattus norvegicus, po, 1 h; p.o.; male SD rats; ethanol (99.5%, 1 ml) orally 30 minutes after test compound; ulcer index after one hour
Description: The compounds of this invention have potent activity for promoting the action of the defensive factor. The activity can be evaluated by the defensive action against ulcer induced by ethanol (e.g. inhibitory effect on ethanol-induced gastric ulcer) [cf. Hara, Nobuyuki et al., Pharmacometrics, 29, 557 (1985)]. […] Inhibitory effect on ethanol-induced gastric ulcer: Male Sprague-Dawley (SD) rats (weighing 180-220 g, 8 weeks age, 16 rats per group) were fasted for 24 hours, and to the rats was orally administered the test compound in the form of a solution in distilled water or a suspension in 1% aqueous gum arabic. After 30 minutes, ethanol (99.5%, 1 ml) was orally administered to the rats in the same manner as described by Robert et al. [cf. Gastroenterology, 77, 433 (1979)]. One hour after the administration of ethanol, the rats were sacrificed under ether anesthesia, and the stomach was removed. Into the stomach was poured 1% formalin (12 ml), and then the stomach was immersed in 1% formalin for 15 minutes. The stomach was cut along the greater curvature, and the length (mm) of each ulcer occured on the fundic mucosa was measured with a dissecting microscope. Sum of the length of ulcers in each rat was used as the ulcer index in each rat. In control rats to which no test compound was administered, the ulcer index was determined likewise, and the mean value (mean ulcer index) was calculated. […] A dose-response curve was drawn based on the ratio thus obtained and the dose of test compounds, and therefrom, the 50% effective dose (ED50) was determined.

[2] = system: water-immersion stress-induced gastric ulcer; assay: Inhibitory effect on water-immersion stress-induced gastric ulcer; assay type: in vivo; conditions: Rattus norvegicus, po; male SD rats; water bath at 23° C., 17 hours
Description: Inhibitory effect on water-immersion stress-induced gastric ulcer: Male SD rats (weighing 190-230 g, 8 weeks age, 16 rats per group) were fasted for 24 hours, and to the rats was orally administered the test compound in the form of a solution in distilled water or a suspension in 1% aqueous gum arabic. After 15 minutes, the rats were immersed vertically to the height of the xiphoid of the rats in water bath at 23° C. within a stress cage in the same manner as described by Takagi et al. [cf. Japanese Journal of Pharmacology, 18, 9 (1968)]. After 17 hours, the rats were sacrificed under ether anesthesia and the stomach was removed. The stomach was treated with formalin and the ulcer index as well as ED50 were determined in the same manner as described in Experiment 1.

[3] = system: indomethacin-induced gastric ulcer; assay: Inhibitory effect on indomethacin-induced gastric ulcer; assay type: in vivo; conditions: Rattus norvegicus, po; male SD rats; indomethacin 30 mg/kg s.c.; ulcer index after 5 hours
Description: Inhibitory effect on indomethacin-induced gastric ulcer: It was done in the same manner as described by Okabe et al. [cf. Digestive Diseases and Science, 28, 1034 (1983)]. That is, male SD rats (weighing 180-220 g, 8 weeks age, 16 rats per group) were fasted for 24 hours, and to the rats was orally administered the test compound in the form of a solution in distilled water or a suspension in 1% aqueous gum arabic. After 15 minutes, to the rats was subcutaneously administered indomethacin (30 mg/kg) in the form of a solution in 3% aqueous sodium hydrogen carbonate solution. After 5 hours, the rats were sacrificed under ether anesthesia and the stomach was removed. The stomach was treated with formalin and the ulcer index as well as ED50 were determined in the same manner as described in Experiment 1.

[4] = Acute toxicity; conditions: mouse, in vivo, po; male ddY mice; death observed for 7 days; Weil's method
Description: To male ddY mice (weighing 18-22 g, 4 weeks age, […] mice per group) fasted overnight was orally administered the test compound in the form of a solution in distilled water or a suspension in 1% aqueous gum arabic. […] From the number of dead mice, LD50 was determined in the same manner as Weil's method.

Compound: COc1ccc(OC(=O)CN2CCN(Cc3ccc(OC)c(OC)c3OC)CC2)cc1.Cl.Cl [Compound 1, 1-[(4-Methoxyphenoxy)carbonylmethyl]-4-(2,3,4-trimethoxybenzyl)piperazine dihydrochloride]
- ED50 [1]: 27 mg/kg
- ED50 [2]: 88 mg/kg
- ED50 [3]: 10 mg/kg
- LD50 at 168 h [4]: 4200 mg/kg

Compound: NC[C@H]1CC[C@H](C(=O)Oc2ccc(CCC(=O)O)cc2)CC1 [Reference compound, Cetraxate hydrochloride, reference compound]
- ED50 [1]: 112 mg/kg
- ED50 [2]: > 1000 mg/kg
- ED50 [3]: 361 mg/kg
- LD50 at 168 h [4]: > 8000 mg/kg

Compound: COc1ccc(OC(=O)CN2CCN(Cc3cc(OC)c(OC)c(OC)c3)CC2)cc1.O.O=C(O)/C=C/C(=O)O.O=C(O)/C=C/C(=O)O [Compound 2, 1-[(4-Methoxyphenoxy)carbonylmethyl]-4-(3,4,5-trimethoxybenzyl)piperazine difumarate monohydrate]
- ED50 [1]: 30 mg/kg
- ED50 [2]: 123 mg/kg
- ED50 [3]: 11 mg/kg
- LD50 at 168 h [4]: 4800 mg/kg
